# In patent US10435414B2, “Tricyclic PI3K inhibitor compounds and methods of use” (Genentech, Inc., priority 2015, dated 2019):
# Biological target: PI3Kα (alpha) (Homo sapiens (Human), UniProt P42336)
# Experiment: p110α (alpha) PI3K binding assay (ADP-Glo lipid kinase reaction, Ki by Morrison equation)
# Type: biochemical
# Details: PI3K alpha 0.2 nM, ATP 40 μM, PIP2:3PS 50 μM, 120 min, room temperature; read-out: PI3Kα-(alpha) ATP (Ki) micromolar
# Experimental: PI3K Binding assays are intended for determining the biochemical potency of small molecule PI3K inhibitors. The PI3K lipid kinase reaction is performed in the presence of PIP2:3PS lipid substrate (Promega #V1792) and ATP. Following the termination if the kinase reaction, turnover of ATP to ADP by the phosphorylation of the lipid substrate is detected using the Promega ADP-Glo™ (Promega #V1792) assay. Reactions are carried out using the following conditions:
# After 120 minutes of reaction time, the kinase reaction is terminated. Any ATP remaining after the reaction is depleted, leaving only ADP. Then the Kinase Detection Reagent is added to convert ADP to ATP, which is used in a coupled luciferin/luciferase reaction. The luminescent output is measured and is correlated with kinase activity.
# All reactions are carried out at room temperature. […] The reaction is started by the addition of 2 μl ATP/MgCl2. The kinase reaction buffer contains 50 mM HEPES, 50 mM NaCl, 3 mM MgCl2, 0.01% BSA, 1% DMSO, and enzyme and substrate concentrations as indicated in the above table. The reaction is stopped by the addition of 10 μL ADP-Glo reagent. Plates are read in a Perkin Elmer Envision system using luminescence mode. 10 point dose response curves are generated for each test compound. Ki values for each compound are determined using the Morrison Equation.
# PI3Kα (alpha), sequence (P42336 whole entry): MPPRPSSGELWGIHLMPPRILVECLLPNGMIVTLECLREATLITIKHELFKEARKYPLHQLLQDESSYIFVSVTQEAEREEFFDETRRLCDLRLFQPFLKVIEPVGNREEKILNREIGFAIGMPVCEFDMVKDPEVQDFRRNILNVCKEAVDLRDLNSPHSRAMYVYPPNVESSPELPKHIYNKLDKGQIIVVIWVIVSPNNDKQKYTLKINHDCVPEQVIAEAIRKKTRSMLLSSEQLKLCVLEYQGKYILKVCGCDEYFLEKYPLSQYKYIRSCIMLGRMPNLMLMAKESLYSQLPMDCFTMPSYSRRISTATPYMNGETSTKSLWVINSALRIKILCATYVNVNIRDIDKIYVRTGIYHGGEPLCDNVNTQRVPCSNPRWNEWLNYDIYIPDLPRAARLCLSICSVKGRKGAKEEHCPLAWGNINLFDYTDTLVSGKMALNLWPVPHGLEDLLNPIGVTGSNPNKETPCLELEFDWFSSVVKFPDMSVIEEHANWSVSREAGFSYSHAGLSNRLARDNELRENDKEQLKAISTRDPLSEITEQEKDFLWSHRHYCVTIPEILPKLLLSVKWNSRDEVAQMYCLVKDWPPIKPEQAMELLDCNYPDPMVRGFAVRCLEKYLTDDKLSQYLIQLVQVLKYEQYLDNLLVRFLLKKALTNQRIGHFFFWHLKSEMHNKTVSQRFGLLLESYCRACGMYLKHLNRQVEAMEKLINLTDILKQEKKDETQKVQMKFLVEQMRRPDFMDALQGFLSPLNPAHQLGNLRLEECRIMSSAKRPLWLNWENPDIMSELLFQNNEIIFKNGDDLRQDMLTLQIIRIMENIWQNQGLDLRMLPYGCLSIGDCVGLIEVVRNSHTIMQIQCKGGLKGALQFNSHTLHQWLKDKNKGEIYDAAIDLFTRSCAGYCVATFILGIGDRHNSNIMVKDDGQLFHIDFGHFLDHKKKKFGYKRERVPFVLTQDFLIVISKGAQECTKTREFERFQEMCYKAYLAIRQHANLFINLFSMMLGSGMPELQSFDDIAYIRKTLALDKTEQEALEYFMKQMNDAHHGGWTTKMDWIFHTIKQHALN
# PI3Kα (alpha), sequence (P27986 whole entry partner): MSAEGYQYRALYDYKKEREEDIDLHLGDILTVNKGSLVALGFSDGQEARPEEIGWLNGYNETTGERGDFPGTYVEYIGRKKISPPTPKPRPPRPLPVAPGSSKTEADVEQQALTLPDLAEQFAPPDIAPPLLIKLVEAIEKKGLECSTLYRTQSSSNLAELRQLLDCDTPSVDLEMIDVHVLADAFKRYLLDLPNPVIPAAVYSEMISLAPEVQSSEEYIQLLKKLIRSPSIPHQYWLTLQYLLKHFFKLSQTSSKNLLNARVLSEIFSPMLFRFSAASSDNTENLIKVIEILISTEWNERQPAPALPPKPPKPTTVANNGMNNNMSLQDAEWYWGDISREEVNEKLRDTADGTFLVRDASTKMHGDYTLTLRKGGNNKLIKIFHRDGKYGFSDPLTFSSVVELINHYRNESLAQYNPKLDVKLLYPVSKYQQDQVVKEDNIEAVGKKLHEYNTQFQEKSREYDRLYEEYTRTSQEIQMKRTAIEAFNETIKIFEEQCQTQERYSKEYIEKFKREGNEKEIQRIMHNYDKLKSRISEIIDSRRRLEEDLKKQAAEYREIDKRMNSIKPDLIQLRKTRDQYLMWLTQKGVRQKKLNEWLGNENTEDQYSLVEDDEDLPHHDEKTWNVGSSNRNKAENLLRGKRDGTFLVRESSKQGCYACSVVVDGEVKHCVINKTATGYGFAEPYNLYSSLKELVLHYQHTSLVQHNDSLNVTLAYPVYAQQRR
row,Ki,SMILES
1,0.104 nM,"NC(=O)[C@H](Oc1cc2c3c(c1)nc(-c1ccc4oc(N)nc4c1)n3CCCCO2)C1CC1 (single isomer, unassigned) [Example 283]"
2,< 0.02 nM,"NC(=O)[C@@H](Oc1cc2c3c(c1)nc(-c1ccc4oc(N)nc4c1)n3CCCCO2)C1CC1 (single isomer, unassigned) [Example 284]"
3,0.1 nM,"NC(=O)[C@H](Oc1cc2c3c(c1)nc(-c1cc(F)c4oc(N)nc4c1)n3CCCCO2)C1CC1 (single isomer, unassigned) [Example 288]"
4,< 0.02 nM,"NC(=O)[C@@H](Oc1cc2c3c(c1)nc(-c1cc(F)c4oc(N)nc4c1)n3CCCCO2)C1CC1 (single isomer, unassigned) [Example 289]"
